# pIC50: −log10 of the molar value.
# Assays:
# [1] = test system: MDS CD34+ progenitors; assay: methylcellulose clonogenic assay, MDS CD34+ progenitors; assay type: cell-based, human; conditions: for erythroid (BFU-E) and myeloid (CFU-GM) colony formation in MDS CD34+ bone marrow cells: in vitro, methylcellulose
# Procedure: MDS BM-derived CD34+ cells from 19 patients with MDS (Table 5) were cultured in methylcellulose in the presence and absence of increasing concentrations of compound 57. Results are expressed as means+/−SEM of 19 independent experiments.
# (A) Total colony numbers of (A) Blast Forming unit-erythroid (BFU-E) and (B) Colony forming unit-Granulocytic Macrophage (CFU-GM) before (control) and after compound 57 treatment (100 nM) of 19 patients with MDS (Table 5).
# (§1) All participants in the study signed informed consent, approved by the institutional review board of UT Southwestern and Dallas VA Medical Center. Hematopoietic progenitor colony formation was determined by clonogenic assays in methylcellulose, as detailed in previous studies. A total of 1×10^4 isolated CD34+ progenitor cells in 0.4 ml IMDM+2% FBS were resuspended in 4 ml MethoCult® (Stem Cell Technologies) and vortexed vigorously. The CD34+ cell:methylcellulose mixture was dispensed into 35 mm culture dishes (1×10^3 cells/35 mm plate) using sterile 3 cc syringe with attached sterile 16-gauge blunt-end needle. Cell cultures were incubated at 37° C., 5% CO2 in air and >95% humidity for 14-16 days. Granulocyte/macrophage colony-forming (CFU-GM) units and erythroid burst forming units (BFU-E) from different samples were scored on day 14 of culture.
# [2] = target: p38α (Homo sapiens, UniProt Q16539); assay: direct enzymatic assay for inhibition of p38α; assay type: biochemical; conditions: direct enzymatic assays
# Sequence of p38α (Q16539 whole entry): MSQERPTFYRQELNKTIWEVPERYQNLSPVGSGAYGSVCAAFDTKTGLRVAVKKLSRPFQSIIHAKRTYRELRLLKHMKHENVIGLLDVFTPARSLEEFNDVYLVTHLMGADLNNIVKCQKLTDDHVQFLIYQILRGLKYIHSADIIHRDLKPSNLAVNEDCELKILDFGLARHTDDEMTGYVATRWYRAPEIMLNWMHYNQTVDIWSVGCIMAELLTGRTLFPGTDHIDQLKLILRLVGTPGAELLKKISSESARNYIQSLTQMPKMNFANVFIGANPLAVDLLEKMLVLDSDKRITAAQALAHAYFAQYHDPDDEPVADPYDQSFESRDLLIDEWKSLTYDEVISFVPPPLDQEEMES
# Procedure: (§2) The p38α MAPK inhibitor compound 57 was synthesized by Medicinal Chemistry (Scios, Inc., Fremont, Calif.). compound 57 has an IC50 of 9 nM for inhibition of p38α based on direct enzymatic assays, about 10-fold selectivity for p38α over p38β, and at least 2000-fold selectivity for p38α over a panel of 20 other kinases, including other MAPKs.
# [3] = target: p38β (Homo sapiens, UniProt Q15759); assay: selectivity for p38α over p38β; assay type: biochemical
# Sequence of p38β (Q15759 whole entry): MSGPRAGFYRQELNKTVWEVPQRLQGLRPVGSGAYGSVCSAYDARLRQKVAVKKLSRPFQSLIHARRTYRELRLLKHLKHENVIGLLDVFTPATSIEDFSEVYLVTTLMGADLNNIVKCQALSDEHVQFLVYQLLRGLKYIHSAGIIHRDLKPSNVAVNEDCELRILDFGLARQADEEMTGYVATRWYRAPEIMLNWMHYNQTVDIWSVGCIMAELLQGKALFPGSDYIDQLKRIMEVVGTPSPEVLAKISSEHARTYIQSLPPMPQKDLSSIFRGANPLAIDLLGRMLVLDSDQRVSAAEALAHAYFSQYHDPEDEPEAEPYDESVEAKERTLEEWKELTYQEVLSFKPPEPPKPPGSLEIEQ
# Procedure: as §2
# [4] = test system: LPS-induced TNFα secretion in whole human blood; assay: cell based assay, LPS-induced TNFα secretion in whole human blood; conditions: read-out: IC50 for inhibition of LPS-induced TNFα secretion
# Procedure: Other in vitro assays can assess the production of TNF-α as a correlation to p38 MAP kinase activity. One such example is a Human Whole Blood Assay. In this assay, venous blood is collected from, e.g., healthy male volunteers into a heparinized syringe and is used within 2 hours of collection. Test compounds are dissolved in 100% DMSO and 1 μl aliquots of drug concentrations ranging from 0 to 1 mM are dispensed into quadruplicate wells of a 24-well microtiter plate (Nunclon Delta SI, Applied Scientific Co., San Francisco, Calif.). Whole blood is added at a volume of 1 ml/well and the mixture is incubated for 15 minutes with constant shaking (Titer Plate Shaker, Lab-Line Instruments, Inc., Melrose Park, Ill.) at a humidified atmosphere of 5% CO2 at 37° C. Whole blood is cultured either undiluted or at a final dilution of 1:10 with RPMI 1640 (Gibco 31800+NaHCO3, Life Technologies, Rockville, Md. and Scios, Inc., Sunnyvale, Calif.). At the end of the incubation period, 10 μl of LPS (E. coli 0111:B4, Sigma Chemical Co., St. Louis, Mo.) is added to each well to a final concentration of 1 or 0.1 μg/ml for undiluted or 1:10 diluted whole blood, respectively. The incubation is continued for an additional 2 hours. The reaction is stopped by placing the microtiter plates in an ice bath, and plasma or cell-free supernates are collected by centrifugation at 3000 rpm for 10 minutes at 4° C. […]
# [5] = test system: normal CD34+ progenitors; assay: methylcellulose clonogenic assay, cytokine-suppressed normal CD34+ progenitors; assay type: cell-based, human
# Procedure: Primary bone marrow derived CD34+ cells were cultured in methylcellulose in the presence and absence of 20 ng/ml TNFα and with the indicated concentrations of compound 57 (nM). BFU-E and CFU-GM colonies were scored on Day 14. Results are expressed as means+/−S.E.M. of three independent experiments.
# Primary bone marrow derived CD34+ cells were cultured in methylcellulose in the presence and absence of […] IFNγ and with the indicated concentrations of the p38α inhibitors (compound 57; nM) or compound 162. BFU-E and CFU-GM colonies were scored on Day 14. Results are expressed as means+/−S.E.M. of three independent experiments.
# as §1, with “Cell cultures were incubated at 37° C., 5% CO2 in air and >95% humidity for 14-16 days.” left out
# [6] = test system: TNFα secretion from BMMNC; assay: basal and LPS-induced TNFα secretion from normal BMMNC, ELISA; assay type: cell-based; conditions: Homo sapiens, basal or LPS-induced normal BMMNC cultures, 24 h, read-out: IC50 for inhibition of TNFα secretion
# Procedure: BMMNC (1×10^6) from a normal healthy donor were cultured in the absence and presence of increasing concentrations of compound 57 for 24 hours without or with 10 ng/ml LPS. TNFα concentration in cell supernatants were determined by ELISA. Figure represents Mean+/−SD of three independent experiments.
# (§3) TNFα, IL-6, VEGF, and IFNγ concentrations of the cell culture supernatants were assayed using ELISA kits from BioSource International (Camarillo, Calif.). MCP-1, MMP-2 and MMP-9 concentrations were assayed using ELISA kits from R&D Systems.
# [7] = test system: BMSC; assay: cDNA microarray analysis of chemokines in TNFα- or IL-1β-stimulated BMSC; assay type: cell-based, human
# Description: Details of microarray and data analysis have been described previously. The data was normalized using the maNorm function in array package of Bioconductor version 1.5.8. Differential expression values were expressed as the ratio of the median of background-subtracted fluorescence intensity of the experimental RNA to the median of background-subtracted fluorescence intensity of the control RNA. The total BMSC RNA was extracted from cells using Qiagen's RNeasy kit (Valencia, Calif.). Arrays were probed in quadruplicate for a total of 16 hybridizations: control versus TNFα (24 hours), TNFα versus compound 57+TNFα (24 hours), control versus IL-1β (24 hours), IL-1β versus compound 57+IL-1β (24 hours).
# [8] = test system: IFNγ production; assay: IFNγ production in IL-12 and IL-18-induced BMMNC, ELISA; assay type: cell-based; conditions: Homo sapiens, 24 hours, read-out: IC50 for block of IFNγ production
# Procedure: BMMNC (1×10^6) from a normal healthy donor were stimulated with IL-12, IL-18 or both in the presence or absence of increasing concentrations of compound 57 for 24 h. IFN-γ concentration in cell supernatants was determined by ELISA. Figure represents Mean+/−SD of three independent experiments.
# as §3
# [9] = test system: IFNγ; assay: induction of IFNγ by anti-CD3 antibody; assay type: cell-based; conditions: data not shown
# [10] = microarray ratio IL-1β versus compound 57+IL-1β, 24 hours
# [11] = microarray ratio TNFα versus compound 57+TNFα
smiles,measurement,setting,value
COc1cccc(-c2cc(=O)c3ccccc3o2)c1N [PD 98059],erythroid (BFU-E) and myeloid (CFU-GM) colony formation in MDS CD34+ bone marrow cells,[1],not observed
CCc1nc(-c2ccc(OC)cc2)[nH]c1-c1ccncc1 [SB 202474],erythroid (BFU-E) and myeloid (CFU-GM) colony formation in MDS CD34+ bone marrow cells,[1],not observed
COc1cc2c(cc1C(=O)N1C[C@H](C)N(Cc3ccc(F)cc3)C[C@H]1C)c(C(=O)C(=O)N(C)C)cn2C [compound 57],pIC50,[2],8.05
same,selectivity for p38α over p38β,[3],about 10 fold
same,pIC50,[4],5.89
same,increase in both BFU-E and CFU-GM colony numbers compared to those without compound,"[5]; TNFα-treated CD34+ progenitors, 50 nM compound",about 100%
same,increase in myeloid and erythroid colony numbers in MDS progenitors,[1]; 20 nM-100 nM compound,2-3 fold
same,pIC50,[6],7.30
same,"CCL2 (MCP-1) differential expression, C57 + IL-1β",[7]; [10],−1.4
same,"CCL7 (MCP3) differential expression, C57 + IL-1β",[7]; [10],−1.5
same,"CXCL1 (GROα) differential expression, C57 + IL-1β",[7]; [10],−1.6
same,"CXCL3 (GROγ) differential expression, C57 + IL-1β",[7]; [10],1.3
same,"CXCL6 (GCP2) differential expression, C57 + IL-1β",[7]; [10],−1.6
same,"CXCL10 (IP10) differential expression, C57 + IL-1β",[7]; [10],1.0
same,"CXCL11 (ITAC) differential expression, C57 + IL-1β",[7]; [10],0.0
same,"CXCL16 (SR-PSOX) differential expression, C57 + IL-1β",[7]; [10],−4.2
same,"CCL2 (MCP-1) differential expression, C57 + TNFα (24 h)",[7]; [11],−1.7
same,"CCL7 (MCP3) differential expression, C57 + TNFα (24 h)",[7]; [11],−2.2
same,"CXCL1 (GROα) differential expression, C57 + TNFα (24 h)",[7]; [11],−2.9
same,"CXCL3 (GROγ) differential expression, C57 + TNFα (24 h)",[7]; [11],−1.6
same,"CXCL6 (GCP2) differential expression, C57 + TNFα (24 h)",[7]; [11],−5.3
same,"CXCL10 (IP10) differential expression, C57 + TNFα (24 h)",[7]; [11],−2.9
same,"CXCL11 (ITAC) differential expression, C57 + TNFα (24 h)",[7]; [11],−1.4
same,"CXCL16 (SR-PSOX) differential expression, C57 + TNFα (24 h)",[7]; [11],1.4
same,pIC50,[8],> 7.30
same,induction of IFNγ by anti-CD3 antibody,[9],not inhibited
CN(C)C(=O)C(=O)c1c[nH]c2cc(Cl)c(C(=O)N3CCC(Cc4ccc(F)cc4)CC3)cc12 [compound 162],IFNγ-induced suppression of erythroid and myeloid colony formation,"[5]; normal CD34+ progenitors, IFNγ, day 14",reverses

# Reference: US20060258582A1, “Method of treating myelodysplastic syndromes” (Scios, Inc., priority 2004, published 2006)
